Source: patent US20160340659A1, “ACTIN BINDING PEPTIDES AND COMPOSITIONS COMPRISING SAME FOR INHIBITING ANGIOGENESIS AND TREATING MEDICAL CONDITIONS ASSOCIATED WITH SAME” (YISSUM RESEARCH AND DEVELOPMENT COMPANY OF THE HEBREW …, priority 2014, published 2016)
“Also recorded” adds a separate entry of the source. Where no end group is shown, it is not given here.

Legend:
[1] = tested on: chick Chorio-Allantoic Membrane (CAM); assay: Ex ovo CAM angiogenesis assay; type: in vivo, chicken; conditions: 3 μg on paper disk daily for four days from day 8; compared to PBS control
Experimental: In this assay, in-vivo angiogenesis is assessed on live chick embryos grown in petri dishes. Fertilized eggs are cracked into a petri dish after a few (e.g. 3) days incubation at appropriate temperature (e.g. 37° C.) and humidity. In the following days, the embryos developed a vascular network, which can then easily be exposed to any treatment or combination of treatments, for example, via delivery onto absorbent disks placed on/about the developing vascular regions. Angiogenesis is scored by periodically (e.g. 1×/day, 2×/day, 1×/2 days, 1×/4 days, etc) counting the number of blood vessels around the disk.
Fertilized chicken eggs were incubated horizontally at 37° C. and humidity of 60-62% and cracked into Petri dishes at embryonic day 4. Incubation was continued under the same conditions. […] Treatment was given every day for four days, then, the number of blood vessels around the treated disks was counted.

actin [2] = target: T1, actin (Oryctolagus cuniculus, UniProt P68135); assay: Surface plasmon resonance (BIAcore) of actin binding; conditions: actin on CM5 chip, 25° C.
Experimental: SPR was performed on a BIAcore 3000 instrument (BIAcore, Uppsala, Sweden). Actin was diluted in 100 mM CH3COONa pH 4.6 to a final concentration of 20 μg/ml (200 μl total) resulting in ˜1 ng immobilized actin on a CM5 BIAcore sensor chip (GE Healthcare Bio-Sciences AB) using the standard BIAcore amine coupling chemistry protocol. The CM5 chip allows four separate flow cells to be operated in the BIAcore 3000 instrument used in these experiments. Coupling is achieved by activating the surface of the sensor chips with equal volumes of 50 mM N-hydroxysuccimide (NHS)/200 mM Nethyl-N-(3-[…])-carboiimide (EDC) (BIAcore, AB, Uppsala, Sweden) to form activated carboxyl groups. An actin solution […] was run over the chip for 5 min at a rate of 10 μl/min, allowing the amine groups on the protein to react with the activated esters. In the final stage of immobilization, the surface was blocked by 1M ethanol amine, pH 8.0. The binding assay was performed by injecting the hRNASET2, trT2-49, trT2-49m or peptides solutions in running buffer (HBS—10 mM Hepes, 150 mM Sodium Chloride, 3 mM EDTA, 0.005% Polysorbate 20) at 5 different concentrations at a flow rate of 10 μl/min at 25° C. Injections were performed simultaneously over all four channels and blank surface (a plain dextran matrix, channel 1) was used as control. The net signal was obtained by subtracting the blank signal from the signal of the immobilized surface. The association phase for protein or peptides binding to actin was followed for 4 min, and dissociation phases were monitored for 3 min. Surface regeneration between consecutive binding cycles included a 1 min injection of 1 mM NaOH. The response was monitored as a function of time (sensorgram) at 25° C. Multi-concentration data were globally fit using BIA evaluation 3.2 software.
The strength of a two molecule interaction is characterized by the equilibrium dissociation (binding) constant KD=[P][L]/[PL], where [P] is the concentration of free protein (or peptide), [L] the concentration of ligand and [PL] the concentration of the complex. […]

actin [3] = target: T1, actin; assay: Actin binding solid phase assay; conditions: immobilized actin, 0-500 ng/100 μl well
Experimental: 96-well plates (MaxiSorp® flat-bottom 96-well plate, Fisher Scientific Inc., Fair Lawn, N.J.) were coated with 500 ng actin in 100 μl carbonate-bicarbonate buffer (pH 9.5) for 1 h at 37° C. The plate was washed once with TBS and then blocked with 3% BSA in 200 μl TBS buffer at 37° C., for 1 h. Wells were then washed once with 250 μl TBS. trT2-49, trT2-49m or each of the 29 peptides were added at 1:2 dilutions in 100 μl TBS, starting from 500 ng/well, incubated for 1 h at 37° C. and then washed three times with TBS containing 0.1% Tween-20 (TBST). Each well was then treated with 100 μl rabbit anti-trT2-49 diluted 1:500 in TBS and incubated for 1 h at 37° C. The wells were washed three times with TBST and then incubated with 100 μl goat anti-rabbit IgG-HRP (Jackson ImmunoResearch, West Grove, Pa.) diluted 1:10,000 in TBS, for 1 h at 37° C. Wells were then washed twice with TBST, and once with TBS before 100 μl substrate (1-step Ultra TMB-ELISA, Pierce, Fisher Scientific Inc.) were added. Absorbance at 655 nm was measured 10 min thereafter using a Power Wave 200 Microplate Scanning Spectrophotometer (Bio-Tek Instrument, Winooski, Vt.). Affinity was evaluated by double reciprocal plotting.

Row | Sequence | inhibition of angiogenesis (number of blood vessels around disk) [1] | kon (actin [2]; read-out: Ka × 10^3) | actin binding in solid-phase assay (actin [3]; listed as A103-Q159) | Ka × 10^3 (actin [2]) | actin binding in solid-phase assay (actin [3]; listed as K108-K133)
1 | ALNSQKKYFGRSLELYRELDLNSVLLKLGIKPSINYYQVADFKDALARVYGVIPKIQ [SEQ ID NO: 60] | effective in inhibiting angiogenesis | 1060 M⁻¹ s⁻¹ | most effective actin binding peptides amongst the 29 candidate peptides; also recorded: effective and concentration-dependent binding of actin |  | 
2 | KKYFGRSLELYRELDLNSVLLKLGIK [SEQ ID NO: 57, 26-amino acid peptide representing amino acids 108-133 of RNASET2] | effective in inhibiting angiogenesis |  |  | 3.32 ×10^3 1/Ms | most effective actin binding peptides amongst the 29 candidate peptides; also recorded: effective and concentration-dependent binding of actin
